The source made the active and inactive calls. Bounds are passed on as bounds.

For experiment [1], the target named is T1, Streptokinase A (Streptococcus pyogenes serotype M1, UniProt P10520).
T1 sequence (P10520 whole entry): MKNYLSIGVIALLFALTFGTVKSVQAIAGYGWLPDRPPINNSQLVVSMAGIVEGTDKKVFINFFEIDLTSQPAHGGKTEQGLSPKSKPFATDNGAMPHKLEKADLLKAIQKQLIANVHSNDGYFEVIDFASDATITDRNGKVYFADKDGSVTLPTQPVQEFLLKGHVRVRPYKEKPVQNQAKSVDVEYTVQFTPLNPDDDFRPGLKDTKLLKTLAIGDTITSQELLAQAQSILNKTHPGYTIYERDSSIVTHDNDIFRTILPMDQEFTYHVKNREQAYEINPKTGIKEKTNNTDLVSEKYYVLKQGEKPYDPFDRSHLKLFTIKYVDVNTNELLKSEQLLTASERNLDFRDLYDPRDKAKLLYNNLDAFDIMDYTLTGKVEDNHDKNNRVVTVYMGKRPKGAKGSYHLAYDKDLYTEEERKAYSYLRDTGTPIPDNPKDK
The experiment can be described thus: Absorbance Microorganism-Based Dose Response Follow up to Identify Inhibitors of Streptokinase Expression. [Related pubchem assays: 1677 (Project Summary), 1915, 1914, 1902 (Retest at Dose), 1900 (Counter Screen), 1662 (Primary HTS)]. The format is functional, Streptococcus pyogenes M1 GAS. A general note: The purpose of a counterscreen is to sort out artefacts and off-target activity.

The test system of experiment [2] is Streptococcus. The experiment can be described thus: GAS bacterial viability reduction – luminescence, BacTiter-Glo, strain UMAA2166, counter-screen for streptokinase expression inhibitor project, dose response (AID 2477). The format is functional, organism-based.
Experiment [3] addresses T2, Short transient receptor potential channel 4 (Mus musculus, UniProt Q9QUQ5).
T2 sequence (Q9QUQ5 whole entry): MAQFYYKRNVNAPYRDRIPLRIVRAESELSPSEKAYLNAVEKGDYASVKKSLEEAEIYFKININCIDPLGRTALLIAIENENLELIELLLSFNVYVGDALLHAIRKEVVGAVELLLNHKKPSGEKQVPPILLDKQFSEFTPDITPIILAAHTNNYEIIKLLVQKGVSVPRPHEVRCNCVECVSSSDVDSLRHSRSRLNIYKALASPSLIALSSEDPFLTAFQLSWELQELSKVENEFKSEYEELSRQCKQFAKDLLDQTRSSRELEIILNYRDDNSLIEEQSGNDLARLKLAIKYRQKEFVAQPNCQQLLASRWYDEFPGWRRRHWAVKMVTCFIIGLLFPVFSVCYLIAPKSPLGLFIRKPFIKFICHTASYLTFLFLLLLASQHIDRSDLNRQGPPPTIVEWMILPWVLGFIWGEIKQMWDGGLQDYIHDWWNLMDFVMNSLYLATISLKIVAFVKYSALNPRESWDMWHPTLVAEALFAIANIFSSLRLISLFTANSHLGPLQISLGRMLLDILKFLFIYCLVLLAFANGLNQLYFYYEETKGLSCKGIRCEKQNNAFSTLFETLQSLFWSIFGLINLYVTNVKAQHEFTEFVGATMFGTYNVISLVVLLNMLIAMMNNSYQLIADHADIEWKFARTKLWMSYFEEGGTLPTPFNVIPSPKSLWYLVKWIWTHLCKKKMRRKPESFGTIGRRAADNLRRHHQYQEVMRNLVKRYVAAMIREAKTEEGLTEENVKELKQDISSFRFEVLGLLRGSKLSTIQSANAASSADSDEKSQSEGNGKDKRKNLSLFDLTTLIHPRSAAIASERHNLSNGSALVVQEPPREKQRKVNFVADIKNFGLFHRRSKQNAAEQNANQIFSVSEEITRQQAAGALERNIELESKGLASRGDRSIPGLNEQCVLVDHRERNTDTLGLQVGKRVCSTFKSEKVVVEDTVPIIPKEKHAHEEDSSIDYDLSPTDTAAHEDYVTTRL
The experiment can be described thus: calcium entry via TRPC4 opening agents – cell-based, HEK293 TRPC4/mu-opioid, Fluo-4 calcium, dose response (AID 434937). The format is functional.

In another experiment the target is Troponin, cardiac muscle (Homo sapiens, UniProt P19429+P45379+P63316). The experiment can be described thus: Fluorescence-based biochemical high throughput dose response assay for activators of the calcium sensitivity of cardiac Regulated Thin Filaments (RTF). [Related pubchem assays (depositor defined):AID493008, AID493018, AID504382, AID504383]. The format is protein-complex assay.

Experiment [4] in a line: M. tuberculosis H37Rv growth inhibitors, H37Rv strain (AID 1626). The format is functional.
Experiment [5] concerns the target T3, Microphthalmia-associated transcription factor (Homo sapiens, UniProt O75030).
T3 sequence (O75030 whole entry): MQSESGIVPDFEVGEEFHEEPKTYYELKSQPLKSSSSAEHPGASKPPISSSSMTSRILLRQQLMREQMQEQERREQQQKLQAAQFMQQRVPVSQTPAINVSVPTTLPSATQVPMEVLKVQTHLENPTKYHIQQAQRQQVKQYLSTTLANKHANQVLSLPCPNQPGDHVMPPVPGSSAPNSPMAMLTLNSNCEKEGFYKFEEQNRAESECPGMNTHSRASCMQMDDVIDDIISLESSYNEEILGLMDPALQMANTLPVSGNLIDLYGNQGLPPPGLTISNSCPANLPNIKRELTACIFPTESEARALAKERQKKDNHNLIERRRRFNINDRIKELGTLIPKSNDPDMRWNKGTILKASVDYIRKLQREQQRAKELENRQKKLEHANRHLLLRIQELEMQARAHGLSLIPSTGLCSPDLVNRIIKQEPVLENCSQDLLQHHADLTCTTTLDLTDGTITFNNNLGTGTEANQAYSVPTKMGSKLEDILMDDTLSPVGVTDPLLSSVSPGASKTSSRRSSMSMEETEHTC
The experiment can be described thus: reducers of TRPM1 reporter luminescence, concentration series – cell-based, SK-MEL-5, cherry-picked, set 3, MITF inhibitor project, dose response (AID 493073).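 Further: SK-MEL-5 melanoma cells with luciferase driven by the MITF target TRPM1 promoter.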 The format is functional.

Experiment [6] in a line: reduction of Shn3 3'UTR-driven luciferase in osteoblasts – cell-based, Clone20 osteoblasts, firefly luciferase, cherry-picked, dose response (AID 624132).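 Further: firefly luciferase luminescence from reporter carrying the Shn3 3'UTR in osteoblasts.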 It counts as functional.
Experiment [7] is described as follows: viability loss in A549 lung cancer cells – cell-based, cherry-picks, […], cytotoxicity control, dose response (AID 1053119). The format is functional.
Experiment [8] in a line: non-specific 3'UTR reporter inhibition in Clone20-Shn3RL – cell-based, Renilla luciferase, cherry-picked, counter-screen for Shn3 inhibitor project, dose response (AID 624133). The format is functional.
A further experiment relates to HeLa. The experiment can be described thus: Cytotoxicity counterscreen assay for transcriptional activators of heat shock protein 70 (Hsp70). [Related pubchem assays: 1203, 1252 ]. The format is functional. The conditions noted are these: Homo sapiens.
Experiment [9] is described as follows: loss of viability in HepG2 cells – cell-based, CellTiter-Glo, cherry-picked, cytotoxicity control for Shn3 inhibitor project, dose response (AID 624134). The format is functional. Background: ATP-based viability assays read luminescence as a measure of living cells.
Experiment [10] is described as follows: alpha-synuclein stem-loop luciferase translation blockers – H4 neuroglioma cells, luminescence, confirmation (AID 1988). The format is functional, cell-based.
Experiment [11] is described as follows: luciferase reporter signal suppression in cells – H4 neuroglioma cells, luminescence, dose response (AID 1990). The format is functional, cell-based. Background: A reporter such as luciferase makes a cellular process visible.
A short description of experiment [12]: luciferase reporter signal reduction – luminescence, H4-C neuroglioblastoma cells, dose response (AID 2458).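 Further: H4 neuroglioblastoma cells stably carrying a luciferase reporter gene fusion.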 It counts as functional, cell-based.
The nature of the next experiment: cells. It counts as functional, cell-based.
In a further experiment the target is T4, Estrogen receptor (Homo sapiens, UniProt P03372).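 Further: potency for inhibiting coactivator peptide recruitment to the receptor.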
T4 sequence (P03372 whole entry): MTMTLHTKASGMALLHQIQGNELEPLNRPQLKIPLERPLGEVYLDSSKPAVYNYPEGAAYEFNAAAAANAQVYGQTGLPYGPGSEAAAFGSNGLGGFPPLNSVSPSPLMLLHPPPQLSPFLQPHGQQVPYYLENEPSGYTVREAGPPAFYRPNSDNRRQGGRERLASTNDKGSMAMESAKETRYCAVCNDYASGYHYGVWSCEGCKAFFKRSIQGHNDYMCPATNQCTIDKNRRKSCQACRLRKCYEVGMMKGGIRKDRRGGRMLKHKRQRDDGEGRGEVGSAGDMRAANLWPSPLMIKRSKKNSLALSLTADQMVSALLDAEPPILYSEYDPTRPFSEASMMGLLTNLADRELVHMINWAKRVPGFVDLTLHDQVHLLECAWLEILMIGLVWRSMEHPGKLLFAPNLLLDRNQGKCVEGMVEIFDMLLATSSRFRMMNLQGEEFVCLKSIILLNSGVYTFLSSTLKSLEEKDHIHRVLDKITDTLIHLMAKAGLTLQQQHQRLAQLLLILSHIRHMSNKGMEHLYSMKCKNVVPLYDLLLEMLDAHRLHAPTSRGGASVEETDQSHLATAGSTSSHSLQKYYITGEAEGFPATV

Experiment [13] has as its system Streptococcus sp. 'group A'. The experiment can be described thus: Streptococcus pyogenes SK(-)GAS viability under kanamycin – luminescence, BacTiterGlo, confirmation, counter-screen for streptokinase expression inhibitor project, dose response (AID 1900). The format is functional, organism-based.
Experiment [14] is described as follows: alpha-synuclein stem-loop translation blockers – luminescence, H4 neuroglioblastoma cells, dose confirmation, confirmation (AID 2454).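 Further: H4 neuroglioblastoma cells carrying an alpha-synuclein 5'UTR luciferase reporter; potency for inhibition of the luciferase signal.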 It counts as functional, cell-based.
Experiment [15] addresses T1, Streptokinase A. The experiment can be described thus: viability-normalized secreted streptokinase activity reduction – plasminogen activation absorbance, OD405, dose response (AID 1914).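 Further: secreted streptokinase activity via plasminogen activation per viability signal from cell pellet.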 The format is functional, Streptococcus pyogenes M1 GAS.
The subject of experiment [16] is Streptococcus. The experiment can be described thus: GAS UMAA2166 growth inhibition – luminescence, BacTiterGlo, counter-screen for streptokinase expression inhibitor project, dose response (AID 1915).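 Further: potency for reduction of bacterial viability or growth.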 It counts as functional, organism-based.
In a further experiment the target is NADPH oxidase 1 (Homo sapiens, UniProt Q9Y5S8). It counts as functional, cell-based.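 Further: Cell-based assay with luminescence read-out, IC50 derived from inhibitor dose-response curves; intracellular ROS from endogenous NOX1 in intact HT29 colon cancer cells; potency of inhibitors that lower the ROS luminescence signal.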
NADPH oxidase 1, sequence (Q9Y5S8 whole entry): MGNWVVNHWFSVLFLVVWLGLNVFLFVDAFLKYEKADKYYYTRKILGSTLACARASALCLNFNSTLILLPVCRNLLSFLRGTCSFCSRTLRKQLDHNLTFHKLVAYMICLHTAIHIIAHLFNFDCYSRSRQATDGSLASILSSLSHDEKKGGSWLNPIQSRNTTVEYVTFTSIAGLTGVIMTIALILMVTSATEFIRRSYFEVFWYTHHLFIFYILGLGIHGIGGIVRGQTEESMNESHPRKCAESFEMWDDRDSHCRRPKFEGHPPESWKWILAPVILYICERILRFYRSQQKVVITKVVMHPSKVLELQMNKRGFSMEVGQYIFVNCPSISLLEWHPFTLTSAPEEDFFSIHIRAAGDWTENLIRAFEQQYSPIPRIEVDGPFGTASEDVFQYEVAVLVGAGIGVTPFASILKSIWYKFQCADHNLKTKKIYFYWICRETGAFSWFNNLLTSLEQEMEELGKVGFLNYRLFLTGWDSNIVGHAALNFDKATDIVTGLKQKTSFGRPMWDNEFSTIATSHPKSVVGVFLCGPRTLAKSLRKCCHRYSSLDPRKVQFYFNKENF
For experiment [17], the target named is Peroxisome proliferator-activated receptor gamma/Nuclear receptor coactivator 3 (Homo sapiens, UniProt P37231). It counts as functional.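 Further: agonist potency for raising coactivator recruitment to the receptor.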
Experiment [18] addresses Peroxisome proliferator-activated receptor gamma/Nuclear receptor coactivator 2 (Homo sapiens, UniProt P37231). The format is functional.
For experiment [19], the target named is Peroxisome proliferator-activated receptor gamma/Nuclear receptor coactivator 1 (Homo sapiens, UniProt P37231). The format is functional.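 Further: agonist potency as compounds enhance coactivator SRC-1 recruitment to PPARgamma.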
Peroxisome proliferator-activated receptor gamma/Nuclear receptor coactivator 1, sequence (P37231 whole entry): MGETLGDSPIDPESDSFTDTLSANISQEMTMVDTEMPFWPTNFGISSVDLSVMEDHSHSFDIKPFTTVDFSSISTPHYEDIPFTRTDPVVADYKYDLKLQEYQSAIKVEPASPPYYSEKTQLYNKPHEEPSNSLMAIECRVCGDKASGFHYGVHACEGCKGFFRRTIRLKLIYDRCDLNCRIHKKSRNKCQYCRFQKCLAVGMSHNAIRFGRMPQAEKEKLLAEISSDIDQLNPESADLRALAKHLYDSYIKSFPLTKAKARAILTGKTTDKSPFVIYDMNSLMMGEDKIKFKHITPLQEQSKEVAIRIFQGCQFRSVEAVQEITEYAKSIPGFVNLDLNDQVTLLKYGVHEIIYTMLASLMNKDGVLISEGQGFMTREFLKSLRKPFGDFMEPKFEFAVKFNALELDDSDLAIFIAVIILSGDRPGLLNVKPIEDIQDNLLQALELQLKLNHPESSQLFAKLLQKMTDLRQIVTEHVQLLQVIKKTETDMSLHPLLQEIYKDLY
Peroxisome proliferator-activated receptor gamma/Nuclear receptor coactivator 1, sequence (Q15788 whole entry, further chain): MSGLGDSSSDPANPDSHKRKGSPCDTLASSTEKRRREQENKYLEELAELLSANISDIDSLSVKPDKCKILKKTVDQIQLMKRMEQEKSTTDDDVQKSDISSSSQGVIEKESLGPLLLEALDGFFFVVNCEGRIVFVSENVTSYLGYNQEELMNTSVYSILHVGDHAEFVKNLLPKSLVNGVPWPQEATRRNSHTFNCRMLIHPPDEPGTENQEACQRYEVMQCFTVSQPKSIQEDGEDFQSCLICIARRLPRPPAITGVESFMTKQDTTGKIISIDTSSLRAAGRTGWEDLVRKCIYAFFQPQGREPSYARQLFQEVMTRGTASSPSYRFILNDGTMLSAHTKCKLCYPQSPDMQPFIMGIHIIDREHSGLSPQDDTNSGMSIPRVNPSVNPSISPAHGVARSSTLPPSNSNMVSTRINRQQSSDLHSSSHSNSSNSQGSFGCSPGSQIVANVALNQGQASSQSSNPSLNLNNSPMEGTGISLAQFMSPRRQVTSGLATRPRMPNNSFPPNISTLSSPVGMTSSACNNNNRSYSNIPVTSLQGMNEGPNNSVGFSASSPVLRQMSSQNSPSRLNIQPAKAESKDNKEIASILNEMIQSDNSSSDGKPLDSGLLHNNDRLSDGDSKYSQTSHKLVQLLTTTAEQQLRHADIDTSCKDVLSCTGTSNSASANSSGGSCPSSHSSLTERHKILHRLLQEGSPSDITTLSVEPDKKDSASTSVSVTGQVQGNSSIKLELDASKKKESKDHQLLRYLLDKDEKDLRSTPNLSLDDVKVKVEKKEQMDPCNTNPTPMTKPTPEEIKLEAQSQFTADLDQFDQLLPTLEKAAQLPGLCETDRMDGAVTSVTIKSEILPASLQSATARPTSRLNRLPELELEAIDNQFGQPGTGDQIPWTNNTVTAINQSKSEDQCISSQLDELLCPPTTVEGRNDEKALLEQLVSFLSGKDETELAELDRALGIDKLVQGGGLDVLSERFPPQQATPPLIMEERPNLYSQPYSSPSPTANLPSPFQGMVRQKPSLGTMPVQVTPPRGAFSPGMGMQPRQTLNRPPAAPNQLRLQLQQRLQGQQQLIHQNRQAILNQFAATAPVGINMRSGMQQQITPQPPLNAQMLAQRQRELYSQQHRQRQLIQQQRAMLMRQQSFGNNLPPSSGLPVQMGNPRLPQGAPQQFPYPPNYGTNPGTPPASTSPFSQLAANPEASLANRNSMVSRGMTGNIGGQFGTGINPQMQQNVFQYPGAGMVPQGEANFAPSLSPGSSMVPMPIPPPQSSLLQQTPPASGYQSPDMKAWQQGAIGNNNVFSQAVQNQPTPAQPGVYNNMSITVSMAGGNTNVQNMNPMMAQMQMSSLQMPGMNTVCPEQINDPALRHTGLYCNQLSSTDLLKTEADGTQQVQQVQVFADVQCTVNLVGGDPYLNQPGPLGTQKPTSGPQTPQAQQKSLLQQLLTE
In experiment [20] the target is Mothers against decapentaplegic homolog 3 (Homo sapiens, UniProt P84022). The experiment can be described thus: inhibitors of SMAD-driven TGF-beta signaling – dose response (AID 715). The format is functional.
Mothers against decapentaplegic homolog 3, sequence (P84022 whole entry): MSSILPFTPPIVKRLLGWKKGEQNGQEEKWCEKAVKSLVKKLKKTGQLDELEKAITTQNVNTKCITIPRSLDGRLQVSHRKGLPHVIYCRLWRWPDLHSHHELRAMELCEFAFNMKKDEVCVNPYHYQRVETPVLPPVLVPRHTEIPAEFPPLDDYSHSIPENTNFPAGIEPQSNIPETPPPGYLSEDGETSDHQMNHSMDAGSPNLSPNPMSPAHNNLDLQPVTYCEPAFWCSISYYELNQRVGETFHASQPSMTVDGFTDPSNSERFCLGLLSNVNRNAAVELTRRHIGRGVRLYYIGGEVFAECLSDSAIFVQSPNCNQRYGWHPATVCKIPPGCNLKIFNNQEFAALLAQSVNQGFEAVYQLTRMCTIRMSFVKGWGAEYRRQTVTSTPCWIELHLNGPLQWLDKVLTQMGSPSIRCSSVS
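Wherever CC50 is given: cells exposed to compound for 16 hours before readout.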

Peroxisome proliferator-activated receptor gamma/Nuclear receptor coactivator 2, sequence (P37231 whole entry): as the sequence (P37231 whole entry) above
Peroxisome proliferator-activated receptor gamma/Nuclear receptor coactivator 2, sequence (Q15596 whole entry, further chain): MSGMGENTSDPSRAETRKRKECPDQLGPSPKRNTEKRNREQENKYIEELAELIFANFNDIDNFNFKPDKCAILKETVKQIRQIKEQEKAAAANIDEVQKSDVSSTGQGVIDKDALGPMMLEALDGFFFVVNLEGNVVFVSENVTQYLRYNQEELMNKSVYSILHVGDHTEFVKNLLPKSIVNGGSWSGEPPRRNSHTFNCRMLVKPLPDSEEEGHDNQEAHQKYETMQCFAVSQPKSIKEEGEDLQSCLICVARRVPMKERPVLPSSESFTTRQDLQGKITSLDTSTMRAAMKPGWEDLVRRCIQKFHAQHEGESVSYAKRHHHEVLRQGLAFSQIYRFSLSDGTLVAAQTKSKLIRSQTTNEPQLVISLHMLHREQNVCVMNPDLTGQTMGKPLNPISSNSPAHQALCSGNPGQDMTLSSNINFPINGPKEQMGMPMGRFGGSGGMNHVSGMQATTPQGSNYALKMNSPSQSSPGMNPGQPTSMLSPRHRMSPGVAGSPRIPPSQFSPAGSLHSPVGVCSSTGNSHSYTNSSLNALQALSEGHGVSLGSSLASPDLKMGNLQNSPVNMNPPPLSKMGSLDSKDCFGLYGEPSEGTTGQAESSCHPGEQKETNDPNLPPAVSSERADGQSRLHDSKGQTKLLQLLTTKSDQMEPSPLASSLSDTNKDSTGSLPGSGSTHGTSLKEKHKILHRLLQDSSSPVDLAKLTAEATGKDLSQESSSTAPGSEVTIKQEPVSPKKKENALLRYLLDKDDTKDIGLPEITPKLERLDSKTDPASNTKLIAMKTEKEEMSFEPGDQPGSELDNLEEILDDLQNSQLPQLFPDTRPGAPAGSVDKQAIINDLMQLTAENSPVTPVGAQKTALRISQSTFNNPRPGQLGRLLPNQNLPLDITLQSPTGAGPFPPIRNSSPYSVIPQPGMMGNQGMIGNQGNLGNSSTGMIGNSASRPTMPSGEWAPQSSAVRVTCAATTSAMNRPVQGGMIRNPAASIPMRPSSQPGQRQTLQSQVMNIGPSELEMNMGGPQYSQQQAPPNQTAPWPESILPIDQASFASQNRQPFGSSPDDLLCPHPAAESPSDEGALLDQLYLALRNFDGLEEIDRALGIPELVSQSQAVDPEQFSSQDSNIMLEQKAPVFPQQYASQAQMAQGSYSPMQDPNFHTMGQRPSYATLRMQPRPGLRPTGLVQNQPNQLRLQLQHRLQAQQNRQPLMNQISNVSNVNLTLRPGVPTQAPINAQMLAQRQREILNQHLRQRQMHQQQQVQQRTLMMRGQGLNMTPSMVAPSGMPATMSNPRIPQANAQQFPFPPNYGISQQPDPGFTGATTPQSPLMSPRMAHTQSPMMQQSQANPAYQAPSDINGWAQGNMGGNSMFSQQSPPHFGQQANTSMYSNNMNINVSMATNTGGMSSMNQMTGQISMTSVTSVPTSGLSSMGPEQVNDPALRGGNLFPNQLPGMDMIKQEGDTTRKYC

In general, EC50 refers to the concentration at which the effect is half-maximal. Turning to `COc1ccc(Sc2ccc(NC(=O)c3cccc(Cl)c3)cc2C#N)cc1`, the values for the EC50 at Streptokinase A [1] and in the experiment with Streptococcus [2] were 8.99 µM (active) and > 500 µM (not active), respectively.

For orientation: IC50 means the concentration needed to halve the response being measured. On to `CC(C)(C)C(=O)/C=c1\s/c(=C\c2ccc(-c3ccc([N+](=O)[O-])cc3)o2)c(=O)n1CC(=O)NC(N)=O`, for which the EC50 in [3] is 5.31 µM (active); at Troponin, cardiac muscle, 0.565 µM (active). The IC50 in [4] was > 100 µM (active).

Usually AC50 stands for the concentration giving half of the maximal activity seen. By CC50 is commonly meant the concentration giving 50% cytotoxicity. `CS(=O)(=O)N1CCN(c2ccc(NC(=O)c3ccc([N+](=O)[O-])o3)cc2)CC1`: the AC50 in [5] was 4.92 µM (active); in experiment [6], 5.65 µM (active); in experiment [7], 49.3 µM (active); in experiment [8], 7.78 µM (active); in [9] it was 64.6 µM (active). Also, the CC50 in the experiment with HeLa is 4.95 µM (active).

On to `CN1Cc2cc(C(=O)c3cc(Cl)cc(CSc4ncccn4)c3O)cnc2NC1=O`, for which the EC50 in experiment [10] is < 0.1 µM (active); in [11] it was < 0.1 µM (active); in experiment [12], 0.449 µM (active); in “cells”, 0.812 µM (active); in experiment [13] it was 13.8 µM (active); in experiment [14], 0.799 µM (active). Moreover, the EC50 on Streptokinase A [15] and with Streptococcus [16] was > 150 µM (not active) in each case. Also, the IC50 against Estrogen receptor is reported as > 50 µM (not active).

In the case of `COc1ccc(-c2nc(-c3ccccc3)c(-c3ccccc3)[nH]2)cc1O`, the IC50 at NADPH oxidase 1 is given as > 17 µM (not active).

For the molecule `CCCCOC(=O)CSc1nc(N)c(C#N)c(-c2ccc(OCC)cc2)c1C#N`, the figures for the half-maximal effective concentration (EC50) in experiment [17], in [18] and in experiment [19] were > 79.4 µM (not active), 9.42 µM (active) and 11.2 µM (not active), respectively. The half-maximal inhibitory concentration (IC50) in experiment [20] is 11 µM (active).
